Tests used:
Assay type in all cases: in vivo
[1] = system: Triticum aestivium (TRZAW); assay: B2 Post-emergence herbicidal activity; parameters: key: 5=total damage to plant; 0=no damage to plant; conditions: post-emergence application, rate 1000 g/ha, evaluated after 13 days
Method in brief: (§1)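 Post-emergence spray, 8-day-old potted seedlings; formulation acetone:water 50:50 + 0.5% Tween 20. Glasshouse 24/16 °C, 14 h light, 65% RH. Scored day 13, 0 (no damage) to 5 (total damage).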

[2] = system: Alopecurus myosuroides (ALOMY); assay: B2 Post-emergence herbicidal activity; parameters: key: 5=total damage to plant; 0=no damage to plant; conditions: post-emergence application, rate 1000 g/ha, evaluated after 13 days
Method in brief: as §1

Setaria fabenri (SETFA) = assay: B2 Post-emergence herbicidal activity; parameters: key: 5=total damage to plant; 0=no damage to plant; conditions: post-emergence application, rate 1000 g/ha, evaluated after 13 days
Method in brief: as §1

Avena fatua (AVEFA) [3] = assay: B2 Post-emergence herbicidal activity; conditions: post-emergence application, rate 1000 g/ha, evaluated after 13 days
Method in brief: as §1

[4] = system: Echinochloa crus-galli (ECHCG); assay: B1 Pre-emergence herbicidal activity; parameters: key to Pre-emergence herbicidal activity, ECHCG (damage score 0-5): 5=total damage to plant; 0=no damage to plant; conditions: pre-emergence application, rate 1000 g/ha, evaluated after 13 days
Method in brief: (§2)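 Pre-emergence spray one day after sowing; vehicle acetone/water 50:50 + 0.5% Tween 20. Glasshouse 24/16 °C, 14 h light, 65% RH, watered twice daily. Visual damage score at day 13, 0–5 scale (5 = total damage).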

Lolium perenne (LOLPE) [5] = assay: B1 Pre-emergence herbicidal activity; parameters: key to Pre-emergence herbicidal activity, LOLPE (damage score 0-5): 5=total damage to plant; 0=no damage to plant; conditions: pre-emergence application, rate 1000 g/ha, evaluated after 13 days
Method in brief: as §2

Setaria fabenr (SETFA) = assay: B1 Pre-emergence herbicidal activity; parameters: key to Pre-emergence herbicidal activity, SETFA (damage score 0-5): 5=total damage to plant; 0=no damage to plant; conditions: pre-emergence application, rate 1000 g/ha, evaluated after 13 days
Method in brief: as §2

[6] = system: Echinochloa crus-galli (ECHCG); assay: B2 Post-emergence herbicidal activity; parameters: key to Post-emergence herbicidal activity, ECHCG (damage score 0-5): 5=total damage to plant; 0=no damage to plant; conditions: post-emergence application, rate 1000 g/ha, evaluated after 13 days
Method in brief: as §1

[7] = system: Triticum aestivium (TRZAW); assay: B1 Pre-emergence herbicidal activity; parameters: key: 5=total damage to plant; 0=no damage to plant; conditions: pre-emergence application, rate 1000 g/ha, evaluated after 13 days
Method in brief: as §2

Avena fatua (AVEFA) [8] = assay: B1 Pre-emergence herbicidal activity; parameters: key: 5=total damage to plant; 0=no damage to plant; conditions: pre-emergence application, rate 1000 g/ha, evaluated after 13 days
Method in brief: as §2

[9] = system: Alopecurus myosuroides (ALOMY); assay: B1 Pre-emergence herbicidal activity; parameters: key: 5=total damage to plant; 0=no damage to plant; conditions: pre-emergence application, rate 1000 g/ha, evaluated after 13 days
Method in brief: as §2

Lolium perenne (LOLPE) [10] = assay: B2 Post-emergence herbicidal activity; conditions: post-emergence application, rate 1000 g/ha, evaluated after 13 days
Method in brief: as §1

SMILES | Post-emergence herbicidal activity, TRAZW (damage score 0-5) [1] | Post-emergence herbicidal activity, ALOMY (damage score 0-5) [2] | Post-emergence herbicidal activity, SETFA (damage score 0-5) (Setaria fabenri (SETFA)) | Post-emergence herbicidal activity, AVEFA (damage score 0-5) (Avena fatua (AVEFA) [3]) | Pre-emergence herbicidal activity, ECHCG (damage score 0-5) [4] | Pre-emergence herbicidal activity, LOLPE (damage score 0-5) (Lolium perenne (LOLPE) [5]) | Pre-emergence herbicidal activity, SETFA (damage score 0-5) (Setaria fabenr (SETFA)) | Post-emergence herbicidal activity, ECHCG (damage score 0-5) [6] | Pre-emergence herbicidal activity, TRAZW (damage score 0-5) [7] | Pre-emergence herbicidal activity, AVEFA (damage score 0-5) (Avena fatua (AVEFA) [8]) | Pre-emergence herbicidal activity, ALOMY (damage score 0-5) [9] | Post-emergence herbicidal activity, LOLPE (damage score 0-5) (Lolium perenne (LOLPE) [10])
O=C(CCC1CCCC1)Nc1ccc(-c2cncc(F)c2)nc1C(F)(F)F [Compound C53] | 1 | 0 | 5 | 4 | 5 | 1 | 4 | 5 | 0 | 3 | 1 | 4
O=C1CCCCN1c1ccc(-c2cncc(F)c2)nc1C(F)(F)F [Compound C54, 1-[6-(5-fluoro-3-pyridyl)-2-(trifluoromethyl)-3-pyridyl]piperidin-2-one] | 0 | 1 | 4 | 3 | 2 | 1 | 3 | 5 | 0 | 1 | 0 | 3
O=C1CCCN1c1ccc(-c2cncc(F)c2)nc1C(F)(F)F [Compound C55] | 0 | 1 | 4 | 3 | 1 | 1 | 4 | 4 | 0 | 1 | 0 | 2
O=C(CC(F)(F)F)Nc1ccc(-c2cncc(F)c2)nc1C(F)(F)F [Compound C56] | 1 | 0 | 4 | 3 | 3 | 0 | 4 | 4 | 0 | 1 | 0 | 2
CCC(=O)N(CC#N)c1ccc(-c2cncc(F)c2)nc1C(F)(F)F [Compound C57] | 0 | 0 | 4 | 2 | 3 | 0 | 4 | 4 | 0 | 1 | 0 | 2
CC(C)C(=O)N(CC#N)c1ccc(-c2cncc(F)c2)nc1C(F)(F)F [Compound C58] | 0 | 0 | 5 | 2 | 3 | 0 | 5 | 4 | 0 | 0 | 0 | 1
O=C(Nc1ccc(-c2cncc(F)c2)nc1C(F)(F)F)C1CC1 [Compound C59] | 0 | 1 | 4 | 3 | 4 | 1 | 5 | 5 | 0 | 3 | 0 | 3
O=C(Nc1ccc(-c2cncnc2)nc1C(F)(F)F)C(Cl)(Cl)Cl [Compound C60] | 0 | 0 | 4 | 3 | 3 | 0 | 5 | 4 | 0 | 2 | 0 | 3
C#CCN(C(=O)C(C)C)c1ccc(-c2cncc(F)c2)nc1C(F)(F)F [Compound C61] | 0 | 1 | 4 | 2 | 3 | 0 | 5 | 4 | 0 | 1 | 0 | 2
CCC(=O)N(CCC(F)F)c1ccc(-c2cncc(F)c2)nc1C(F)(F)F [Compound C62] | 1 | 1 | 5 | 4 | 3 | 1 | 4 | 5 | 0 | 2 | 0 | 2

Reference: US11230538B2, “Herbicides” (SYNGENTA PARTICIPATIONS AG, priority 2016, dated 2022)
